Blank lines part the entries; values can stand above or below the molecule they belong to. Primed or numbered codes have the meaning given here. The star is where a group is joined. FITC = O=C1OC2(c3ccc(O)cc3Oc3cc(O)ccc32)c2ccc(NC(=S)*)cc21; AOMK = acyloxymethyl ketone C-terminal warhead; AOMK″ = acyloxymethyl ketone; BODIPY = not defined here
Key:
[1] = target: T1, active MALT1 (Homo sapiens, UniProt Q9UDY8); test: Labeling with diagnostic inhibitor in cell extracts (gel-based, fluorescence scan): active MALT1 band; details: for effect of inhibitor pretreatment on probe 5 labeling of active MALT1: Jurkat T cells, 10 μM inhibitor before stimulation; for selectivity / background of probe labeling in extracts: Jurkat T cell extracts; for detection of endogenous active MALT1-probe complexes: Jurkat T cells stimulated or not, whole cell lysates
T1 construct: endogenous in cells; host or cells: Jurkat T cells, primary human PBMCs and T cells, DLBCL cell lines (HBL1, TMD8, OCI-Ly3, OCI-Ly10, U2932, RIVA, BJAB, Su-DHL-4, Su-DHL-6)
T1 sequence (Q9UDY8 1-824): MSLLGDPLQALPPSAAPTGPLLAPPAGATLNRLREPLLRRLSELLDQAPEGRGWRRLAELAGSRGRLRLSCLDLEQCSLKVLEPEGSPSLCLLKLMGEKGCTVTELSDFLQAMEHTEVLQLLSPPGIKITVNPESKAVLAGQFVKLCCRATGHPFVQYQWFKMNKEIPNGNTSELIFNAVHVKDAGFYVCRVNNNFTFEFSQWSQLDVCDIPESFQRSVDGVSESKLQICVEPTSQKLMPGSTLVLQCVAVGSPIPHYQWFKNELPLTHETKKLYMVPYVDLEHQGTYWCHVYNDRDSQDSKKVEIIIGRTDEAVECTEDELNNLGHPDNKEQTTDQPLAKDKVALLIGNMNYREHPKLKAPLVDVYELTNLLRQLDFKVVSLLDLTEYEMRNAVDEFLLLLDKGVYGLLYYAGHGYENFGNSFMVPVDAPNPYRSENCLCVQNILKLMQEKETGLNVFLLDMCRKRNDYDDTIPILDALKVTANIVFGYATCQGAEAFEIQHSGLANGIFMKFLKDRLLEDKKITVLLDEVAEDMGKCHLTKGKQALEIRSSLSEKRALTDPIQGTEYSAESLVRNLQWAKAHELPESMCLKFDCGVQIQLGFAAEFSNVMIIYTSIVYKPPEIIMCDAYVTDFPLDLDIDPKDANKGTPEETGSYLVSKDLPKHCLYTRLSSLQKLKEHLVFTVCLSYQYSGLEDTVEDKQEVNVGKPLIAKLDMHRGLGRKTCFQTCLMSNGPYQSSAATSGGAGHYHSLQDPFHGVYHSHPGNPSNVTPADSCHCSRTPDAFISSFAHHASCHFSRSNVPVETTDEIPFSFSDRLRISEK
Procedure: (§1) Jurkat T cells were cultured in standard RPMI medium containing 10% FCS, 100 U/ml Penicillin/Streptomycin and 2 mM Glutamin. DNA transfection of 6 μg DNA in 8×10^6 Jurkat T cells was performed by electroporation in a GenePulser Xcell (BioRad) with a 220 Volt pulse. For siRNA experiments, Jurkat T cells were transfected with 100 nM siRNA and Atufect transfection reagent (Silence Therapeutics, Berlin). Jurkat T cells were stimulated either with 200 ng/ml PMA (phorbol 12-myristate 13-acetate) and 300 ng/ml Ionomycin (both Calbiochem) or CD3/CD28 antibody co-ligation (human CD3: 1 μg/ml; human CD28: 4 μg/ml; mouse IgG1: 2 μg/ml; mouse IgG2a: 2 μg/ml; BD Biosciences). DLBCL cell lines (HBL1, TMD8, OCI-Ly3, U2932, RIVA, BJAB, Su-DHL-4 and Su-DHL-6) were cultured in standard RPMI medium containing 20% FCS, 100 U/ml Penicillin/Streptomycin and 2 mM Glutamin. OCI-Ly10 cell line was cultured in IMDM containing 20% human serum, 100 U/ml Penicillin/Streptomycin, 2 U/ml heparine, 50 μM β-mercaptoethanol. Inhibitors 10 μM (z-VRPR-FMK, Mepazine, Thioridazine, CA-074Me) were added to the cells in media for 1 h, prior to stimulation and labeling with diagnostic MALT1 inhibitor.
(§2) Jurkat T cells (1-2×10^7), primary human PBMCs or primary human T cells (0.25 or 1×10^7) were lysed in 150 μl co-IP buffer without protease inhibitors. DLBCL (3×10^7) were lysed in 250 μl buffer. After centrifugation (14000 rpm, 10 min, 4° C.), 100 μl extract (DLBCL: 200 μl) was stained with probe 5 or probe 6 (3 μM end) for 50 min at 29° C., mixed with 4× loading dye and boiled.

[2] = target: T1, active MALT1; test: ELISA-based assay (MALT1 ELASA) on streptavidin-coated plates with MALT1 antibody detection; assay type: cell-based; details: for effect of inhibitor on active MALT1 signal in DLBCL cells: inhibitor-treated (10 μM) DLBCL cells
Procedure: as §1
Untreated DLBCL (1×10^7), primary T cells (0.25×10^7) or Jurkat T cells (0.2-1×10^7) (stimulated or not) were lysed in 300 μl co-IP buffer without protease inhibitors, centrifuged, incubated with probe 7 (concentration as depicted) for 1 h at RT, then transferred to streptavidin-coated plates (96 well, clear) and incubated o/n at 4° C. After blocking with 2% BSA in PBS-T, detection was performed by incubation with MALT1 primary antibody (1 h, RT) and HRP-coupled secondary antibody (1 h, RT). […] was determined after TMB substrate incubation in a photometer (Bio-Tek).

[3] = target: T2, cathepsin B (Homo sapiens, UniProt P07858); test: Labeling with diagnostic inhibitor in cell extracts (gel-based, fluorescence scan): about 30 kDa cathepsin B band; set-up: endogenous in cells; host or cells: Jurkat T cells; HBL1 and other DLBCL cell lines; details: for effect of inhibitor pretreatment on the band below 34 kDa (cathepsin B) labeled by probe 5: Jurkat T cells, 10 μM inhibitor
Procedure: as §1, §2

[4] = target: T3, MALT1 (Homo sapiens, UniProt Q9UDY8); test: MALT1 in vitro cleavage assay using fluorescent substrate; assay type: biochemical
T3 construct: GST
T3 sequence (Q9UDY8 1-824): T1 sequence (Q9UDY8 1-824)
Procedure: (§3) C) Impact of indicated compounds on MALT1, Caspase8 and cathepsin B was tested in in vitro cleavage assays using fluorescent substrates. Results and SD from three independent experiments are shown.
Preferably, MALT1 activity is determined in a MALT1 cleavage assay. […] The assay may be performed in cleavage buffer comprising for example 50 mM MES, 1 M sodium citrate pH 7, 150 mM NaCl, 10% sucrose, 0.1% chaps, 10 mM DTT. Catalytically active MALT1 cleaves the substrate and an increase of AMC fluorescence can be measured.

[5] = target: T1, active MALT1; test: Probe 7-pulldown with streptavidin beads and western blot; assay type: cell-based
Procedure: as §1
Untreated DLBCL (1-2×10^7) or Jurkat T cells (stimulated with PMA/Ionomycin or CD3/28 or left untreated; 1-2×10^7), were lysed in 500 μl co-IP buffer without protease inhibitors, centrifuged, incubated with probe 7 (concentration as depicted) for 1 h at RT then incubated with streptavidin beads for 2 h at 4° C. Precipitate was washed, analysed by SDS-PAGE and western blot.

[6] = target: T2, cathepsin B; test: Cathepsin B cleavage assay (zRR-AMC substrate); assay type: biochemical; set-up: purchased BioVision; details: 0.2 ng cathepsin B, 1 mM zRR-AMC, 2 h at 30° C.
Procedure: as §3
0.2 ng cathepsin B together with probe 5, z-VRPR-FMK (SEQ ID No. 6), mepazine or CA-074 was incubated with 1 mM zRR-AMC substrate for 2 h at 30° C. Assay was performed in 0.1 M sodium acetate pH 5.5, 10 mM DTT and 0.1 mM EDTA. Again, increase of AMC fluorescence is measured in a Synergy 2 Microplate Reader (Biotek).

[7] = HBL1 cells, inhibitors 10 μM each

Molecule: CCCNC(=O)[C@H]1O[C@@H]1C(=O)N[C@H](C(=O)N1CCC[C@H]1C(=O)OC)[C@@H](C)CC [CA-074Me]
effect of inhibitor pretreatment on probe 5 labeling of active MALT1 [1]: inducible MALT1 labeling was unaffected
effect of inhibitor on active MALT1 signal in DLBCL cells ([2]; probe 7): resistant
effect of inhibitor on the about 30 kDa cathepsin B signal labeled by probe 6 [3, 7]: sensitive
effect of inhibitor pretreatment on the band below 34 kDa (cathepsin B) labeled by probe 5 [3]: completely abolished detection

Molecule: CCCNC(=O)[C@H]1O[C@@H]1C(=O)N[C@H](C(=O)N1CCC[C@H]1C(=O)O)[C@@H](C)CC [CA-074]
inhibition of MALT1 protease activity in vitro [4]: neither the non-competitive MALT1 inhibitor mepazine, nor the irreversible cathepsin B specific inhibitor CA-074 showed any cross-inhibition

reduction of MALT1 activity ([2]; 0.5 nM, ABC DLBCL cells): 50-60%
Molecule: C=CC(=O)N1CCC[C@@H](n2nc(-c3ccc(Oc4ccccc4)cc3)c3c(N)ncnc32)C1 [Ibrutinib]

cellular MALT1 inhibition, inhibitor profiling ([2]; ABC DLBCL cell line OCI-Ly3, increasing concentrations): slightly more potent
concentrations at which MALT1 was inhibited ([2]; all ABC DLBCL cell lines): 0.3 to 10 µM
Molecule: CN1CCC[C@H](CN2c3ccccc3Sc3ccccc32)C1 [S-mepazine, 10-{[(3S)-1-methylpiperidin-3-yl]methyl}-10H-phenothiazine]

effect of inhibitor on probe 6 labeling of active MALT1 [1, 7]: sensitivity
effect of inhibitor on formation of MALT1-probe 7 complexes ([5]; Jurkat T cells pretreated with 10 μM inhibitors, 0.1 μM probe 7): blocked
effect of inhibitor on active MALT1 signal in DLBCL cells ([2]; probe 7): strongly reduced
effect of inhibitor pretreatment on the band below 34 kDa (cathepsin B) labeled by probe 5 [3]: unaffected
Molecule: CN1CCCC(CN2c3ccccc3Sc3ccccc32)C1 (centres unmarked) [mepazine, 10-[(1-methylpiperidin-3-yl)methyl]-10H-phenothiazine]
effect of inhibitor pretreatment on probe 5 labeling of active MALT1 [1]: prevents binding of diagnostic MALT1-inhibitor
inhibition of cathepsin B activity in vitro [6]: neither the non-competitive MALT1 inhibitor mepazine, nor the irreversible cathepsin B specific inhibitor CA-074 showed any cross-inhibition

effect of inhibitor pretreatment on the band below 34 kDa (cathepsin B) labeled by probe 5 [3]: unaffected
Molecule: CSc1ccc2c(c1)N(CCC1CCCCN1C)c1ccccc1S2 (centres unmarked) [thioridazine, 10-[2-(1-methylpiperidin-2-yl)ethyl]-2-(methylthio)phenothiazine]
effect of inhibitor pretreatment on probe 5 labeling of active MALT1 [1]: prevents binding of diagnostic MALT1-inhibitor

Molecule: Ac-Lys(biotin)-LRSR-AOMK [probe 7]
detection of MALT1-probe 7 complexes after pulldown ([5]; Jurkat T cells, P/I stimulated or not): exclusively detected in extracts of P/I stimulated Jurkat T cells
probe concentration sufficient to completely remove active MALT1 from the extracts ([5]; extracts of stimulated T cells, supernatant checked with probe 6): 100 nM
constitutively active MALT1 after pulldown in DLBCL cells ([5]; untreated ABC and GCB DLBCL cells, western blot): exclusively in ABC, but not in GCB DLBCL cells
probe concentration sufficient to obtain a robust increase in active MALT1 ([2]; 2×10^6 Jurkat T cells stimulated or not): ≤ 10 nM
MALT1 activity in ABC versus GCB DLBCL cells, ELISA ([2]; DLBCL cell lines, probe 7): significant increase in MALT1 activity in ABC DLBCL cells when compared to GCB DLBCL cells
MALT1 binding to streptavidin-coated plates ([2]; Jurkat T cells, stimulated or not): only detected in P/I or CD3/CD28 stimulated Jurkat T cells
active MALT1 in stimulated primary T cells, ELISA ([2]; primary human T cells, 0.1 μM probe 7): robust induction of active MALT1

detection of endogenous active MALT1-probe complexes [1]: exclusively detected after stimulation
Molecule: BODIPY-ALVSR-AOMK ({BODIPY}-ALVSR-{AOMK″}; reading uncertain)
selectivity / background of probe labeling in extracts [1]: unspecific background labeling of unknown identity at approx. 40 kDa
effect of titrating probe concentration on labeling ([1]; extracts of stimulated Jurkat T cells): decrease background labeling, while active MALT1 activity stays stable

inhibition of MALT1 protease activity in vitro [4]: inhibit MALT1
active MALT1 signal in lymphoma whole cell extracts ([1]; ABC DLBCL cells (HBL1 for probe 6)): not detectable
selectivity / background of probe labeling in extracts [1]: MALT1 was the only inducible band
detection of active MALT1 in primary cells ([1]; extracts of P/I-stimulated PBMCs and human T cells): detected active MALT1
Molecule: FITC-LRSR-AOMK ({FITC}-LRSR-{AOMK}) [probe 5]
detection of endogenous active MALT1-probe complexes [1]: exclusively detected after T cell stimulation
inhibition of cathepsin B activity in vitro [6]: abrogated cathepsin B activity even though slightly less efficient

From patent US10502741B2, “Means and methods for detecting activated MALT1” (Helmholtz Zentrum München Deutsches Forschungszentrum für …, priority 2014, dated 2019)
